Assays:
[1] = tested on: Italian ryegrass (Lolium multiflorum); assay: Test A preemergence; format: in vivo; details: Lolium multiflorum, pre-emergence, 240 h, 0 to 100 scale (0 no effect, 100 complete control), read-out: Ryegrass, Italian plant response rating
Summary of the method: (§1)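 Compounds in non-phytotoxic solvent with surfactant applied as soil spray preemergence, or postemergence to plants 2-10 cm at one- to two-leaf stage, in loam/sand. After approximately 10 days in greenhouse, injury rated visually versus untreated controls, 0 (no effect) to 100 (complete control).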

[2] = tested on: barnyardgrass (Echinochloa crus-galli); assay: Test A preemergence; format: in vivo; details: Echinochloa crus-galli, pre-emergence, 240 h; for pest or weed control at 125 g/ha: 125 g ai/ha
Summary of the method: as §1

[3] = tested on: giant foxtail (Setaria faberii); assay: Test A preemergence; format: in vivo; details: Setaria faberi, pre-emergence, 240 h; for pest or weed control at 125 g/ha: 125 g ai/ha
Summary of the method: as §1

kochia (Kochia scoparia) [4] = assay: Test A preemergence; format: in vivo; details: Bassia scoparia, pre-emergence, 240 h, 0 to 100 scale (0 no effect, 100 complete control), read-out: Kochia plant response rating
Summary of the method: as §1

[5] = tested on: pigweed (Amaranthus retroflexus); assay: Test A preemergence; format: in vivo; details: Amaranthus retroflexus, pre-emergence, 240 h; for pest or weed control at 125 g/ha: 125 g ai/ha
Summary of the method: as §1

[6] = tested on: ragweed (common ragweed, Ambrosia elatior); assay: Test A preemergence; format: in vivo; details: Ambrosia artemisiifolia, pre-emergence, 240 h, 0 to 100 scale (0 no effect, 100 complete control), read-out: Ragweed plant response rating
Summary of the method: as §1

[7] = tested on: Italian ryegrass (Lolium multiflorum); assay: Test A postemergence; format: in vivo; details: Lolium multiflorum, post-emergence, 240 h, 0 to 100 scale, read-out: Plant response rating, Ryegrass, Italian
Summary of the method: as §1

[8] = tested on: barnyardgrass (Echinochloa crus-galli); assay: Test A postemergence; format: in vivo; details: Echinochloa crus-galli, post-emergence, 240 h, 0 to 100 scale, read-out: Plant response rating, Barnyardgrass; for pest or weed control at 125 g/ha: 125 g ai/ha
Summary of the method: as §1

[9] = tested on: blackgrass (Alopecurus myosuroides); assay: Test A postemergence; format: in vivo; details: Alopecurus myosuroides, post-emergence, 240 h, 0 to 100 scale, read-out: Plant response rating, Blackgrass
Summary of the method: as §1

corn (Zea mays) [10] = assay: Test A postemergence; format: in vivo; details: Zea mays, post-emergence, 240 h, 0 to 100 scale; for Corn plant response rating (crop injury, 0 = no effect, 100 = complete kill) at 125 g/ha: 125 g ai/ha
Summary of the method: as §1

[11] = tested on: galium (catchweed bedstraw, Galium aparine); assay: Test A postemergence; format: in vivo; details: Galium, post-emergence, 240 h, 0 to 100 scale, read-out: Plant response rating, Galium
Summary of the method: as §1

[12] = tested on: giant foxtail (Setaria faberii); assay: Test A postemergence; format: in vivo; details: Setaria faberi, post-emergence, 240 h, 0 to 100 scale, read-out: Plant response rating, Foxtail, Giant; for pest or weed control at 125 g/ha: 125 g ai/ha
Summary of the method: as §1

kochia (Kochia scoparia) [13] = assay: Test A postemergence; format: in vivo; details: Bassia scoparia, post-emergence, 240 h, 0 to 100 scale, read-out: Plant response rating, Kochia
Summary of the method: as §1

[14] = tested on: pigweed (Amaranthus retroflexus); assay: Test A postemergence; format: in vivo; details: Amaranthus retroflexus, post-emergence, 240 h, 0 to 100 scale, read-out: Plant response rating, Pigweed; for pest or weed control at 125 g/ha: 125 g ai/ha
Summary of the method: as §1

[15] = tested on: ragweed (common ragweed, Ambrosia elatior); assay: Test A postemergence; format: in vivo; details: Ambrosia artemisiifolia, post-emergence, 240 h, 0 to 100 scale, read-out: Plant response rating, Ragweed
Summary of the method: as §1

[16] = tested on: wheat (Triticum aestivum); assay: Test A postemergence; format: in vivo; details: Triticum aestivum, post-emergence, 240 h, 0 to 100 scale, read-out: Plant response rating, Wheat; for plant injury at 125 g/ha: 125 g ai/ha
Summary of the method: as §1

[17] = tested on: barnyardgrass (Echinochloa crus-galli); assay: Test B flooded paddy; format: in vivo; details: Echinochloa crus-galli, 336 h; 250 g ai/ha, Flood, 13 to 15 days, scale 0 (no effect) to 100 (complete control); read-out: Plant response rating, Barnyardgrass
From the text: (§2) At time of treatment, test pots were flooded to 3 cm above the soil surface, treated by application of test compounds directly to the paddy water, and then maintained at that water depth for the duration of the test. Treated plants and controls were maintained in a greenhouse for 13 to 15 days, after which time all species were compared to controls and visually evaluated. […] A dash (-) response means no test result.

[18] = tested on: ducksalad (Heteranthera limosa); assay: Test B flooded paddy; format: in vivo; details: Heteranthera limosa, 336 h; 250 g ai/ha, Flood, 13 to 15 days, scale 0 (no effect) to 100 (complete control); read-out: Plant response rating, Ducksalad
From the text: as §2

rice (Oryza sativa) = assay: Test B flooded paddy; format: in vivo; details: Oryza sativa, 336 h; 250 g ai/ha, Flood, 13 to 15 days, scale 0 (no effect) to 100 (complete control); read-out: Plant response rating, Rice
From the text: as §2

[19] = tested on: sedge, umbrella (small-flower umbrella sedge, Cyperus difformis); assay: Test B flooded paddy; format: in vivo; details: Cyperus difformis, 336 h; 250 g ai/ha, Flood, 13 to 15 days, scale 0 (no effect) to 100 (complete control); read-out: Plant response rating, Sedge, Umbrella
From the text: as §2

corn (Zea mays) [20] = assay: Test A preemergence; format: in vivo; details: 0 to 100 scale
Summary of the method: as §1

[21] = tested on: large (Lg) crabgrass (Digitaria sanguinalis); assay: Test A preemergence; format: in vivo; details: 0 to 100 scale
Summary of the method: as §1

[22] = tested on: morningglory (Ipomoea spp.); assay: Test A preemergence; format: in vivo; details: 0 to 100 scale
Summary of the method: as §1

[23] = tested on: velvetleaf (Abutilon theophrasti); assay: Test A preemergence; format: in vivo; details: 0 to 100 scale
Summary of the method: as §1

[24] = tested on: wheat (Triticum aestivum); assay: Test A preemergence; format: in vivo; details: 0 to 100 scale
Summary of the method: as §1

[25] = tested on: large (Lg) crabgrass (Digitaria sanguinalis); assay: Test A postemergence; format: in vivo; details: 0 to 100 scale
Summary of the method: as §1

[26] = tested on: morningglory (Ipomoea spp.); assay: Test A postemergence; format: in vivo; details: 0 to 100 scale
Summary of the method: as §1

[27] = tested on: velvetleaf (Abutilon theophrasti); assay: Test A postemergence; format: in vivo; details: 0 to 100 scale
Summary of the method: as §1

[28] = 0 to 100 scale, read-out: Plant response rating, Barnyardgrass

Fc1cnc(Oc2c(F)ccc(F)c2Oc2ncc(Cl)cn2)nc1 [Compound 28] showed a pest or weed control at 31 g/ha ([1]; 31 g ai/ha) of 0%, a pest or weed control at 125 g/ha ([1]; 125 g ai/ha) of 0% and a pest or weed control at 31 g/ha ([2]; 31 g ai/ha, 0 to 100 scale (0 no effect, 100 complete control), read-out: Barnyardgrass plant response rating) of 0%. The pest or weed control at 125 g/ha [2, 28] was 10%, the pest or weed control at 31 g/ha ([3]; 31 g ai/ha, 0 to 100 scale (0 no effect, 100 complete control), read-out: Foxtail, Giant plant response rating) was 10% and the pest or weed control at 125 g/ha ([3]; 0 to 100 scale (0 no effect, 100 complete control), read-out: Foxtail, Giant plant response rating) was 40%. The pest or weed control at 31 g/ha (kochia (Kochia scoparia) [4]; 31 g ai/ha) was 0%, the pest or weed control at 125 g/ha (kochia (Kochia scoparia) [4]; 125 g ai/ha) was 20% and the pest or weed control at 31 g/ha ([5]; 31 g ai/ha, 0 to 100 scale (0 no effect, 100 complete control), read-out: Pigweed plant response rating) was 50%. The pest or weed control at 125 g/ha ([5]; 0 to 100 scale (0 no effect, 100 complete control), read-out: Pigweed plant response rating) was 80%, the pest or weed control at 31 g/ha ([6]; 31 g ai/ha) was 0% and the pest or weed control at 125 g/ha ([6]; 125 g ai/ha) was 0%. For the same molecule, the pest or weed control at 31 g/ha ([7]; 31 g ai/ha) was 0%, the pest or weed control at 125 g/ha ([7]; 125 g ai/ha) was 0% and the pest or weed control at 31 g/ha ([8]; 31 g ai/ha) was 0%. For the same molecule, the pest or weed control at 125 g/ha [8] was 0%, the pest or weed control at 31 g/ha ([9]; 31 g ai/ha) was 0% and the pest or weed control at 125 g/ha ([9]; 125 g ai/ha) was 20%. It also gave a Corn plant response rating (crop injury, 0 = no effect, 100 = complete kill) at 31 g/ha (corn (Zea mays) [10]; 31 g ai/ha) of 0%, a Corn plant response rating (crop injury, 0 = no effect, 100 = complete kill) at 125 g/ha (corn (Zea mays) [10]) of 0% and a pest or weed control at 31 g/ha ([11]; 31 g ai/ha) of 20%. It also gave a pest or weed control at 125 g/ha ([11]; 125 g ai/ha) of 70%, a pest or weed control at 31 g/ha ([12]; 31 g ai/ha) of 0% and a pest or weed control at 125 g/ha [12] of 20%. The pest or weed control at 31 g/ha (kochia (Kochia scoparia) [13]; 31 g ai/ha) was 30%, the pest or weed control at 125 g/ha (kochia (Kochia scoparia) [13]; 125 g ai/ha) was 70% and the pest or weed control at 31 g/ha ([14]; 31 g ai/ha) was 50%. It also gave a pest or weed control at 125 g/ha [14] of 60%, a pest or weed control at 31 g/ha ([15]; 31 g ai/ha) of 10% and a pest or weed control at 125 g/ha ([15]; 125 g ai/ha) of 30%. The plant injury at 31 g/ha ([16]; 31 g ai/ha) was 0%, the plant injury at 125 g/ha [16] was 0% and the melting point was 94 to 98 °C.
With N#Cc1cccc(Oc2ncc(F)cn2)c1Oc1ncc(F)cn1 [Compound 2, 2,3-bis[(5-fluoro-2-pyrimidinyl)oxy]benzonitrile] the pest or weed control at 250 g/ha [17] was 20%, the pest or weed control at 250 g/ha [18] was 70% and the plant injury at 250 g/ha (rice (Oryza sativa)) was 15%. It also gave a pest or weed control at 250 g/ha [19] of 60%, a pest or weed control at 125 g/ha [2, 28] of 20% and a pest or weed control at 500 g/ha ([2]; 500 g ai/ha, 0 to 100 scale, read-out: Plant response rating, Barnyardgrass) of 100%. For the same molecule, the “Plant response rating, Corn” value (corn (Zea mays) [20]; 125 g ai/ha) was 20, the “Plant response rating, Corn” value (corn (Zea mays) [20]; 500 g ai/ha) was 60 and the pest or weed control at 125 g/ha ([3]; 0 to 100 scale, read-out: Plant response rating, Foxtail, Giant) was 100%. The pest or weed control at 500 g/ha ([3]; 500 g ai/ha, 0 to 100 scale, read-out: Plant response rating, Foxtail, Giant) was 100%, the “Plant response rating, Crabgrass, Large” value ([21]; 125 g ai/ha) was 100 and the “Plant response rating, Crabgrass, Large” value ([21]; 500 g ai/ha) was 100. For the same molecule, the “Plant response rating, Morningglory” value ([22]; 125 g ai/ha) was 50, the “Plant response rating, Morningglory” value ([22]; 500 g ai/ha) was 100 and the pest or weed control at 125 g/ha ([5]; 0 to 100 scale, read-out: Plant response rating, Pigweed) was 100%. For the same molecule, the pest or weed control at 500 g/ha ([5]; 500 g ai/ha, 0 to 100 scale, read-out: Plant response rating, Pigweed) was 100%, the “Plant response rating, Velvetleaf” value ([23]; 125 g ai/ha) was 40 and the “Plant response rating, Velvetleaf” value ([23]; 500 g ai/ha) was 100. For the same molecule, the “Plant response rating, Wheat” value ([24]; 125 g ai/ha) was 20, the “Plant response rating, Wheat” value ([24]; 500 g ai/ha) was 30 and the pest or weed control at 125 g/ha [8] was 20%. The pest or weed control at 500 g/ha ([8]; 500 g ai/ha) was 90%, the Corn plant response rating (crop injury, 0 = no effect, 100 = complete kill) at 125 g/ha (corn (Zea mays) [10]) was 0% and the Corn plant response rating (crop injury, 0 = no effect, 100 = complete kill) at 500 g/ha (corn (Zea mays) [10]; 500 g ai/ha) was 90%. For the same molecule, the pest or weed control at 125 g/ha [12] was 40%, the pest or weed control at 500 g/ha ([12]; 500 g ai/ha) was 100% and the “Plant response rating, Crabgrass, Large” value ([25]; 125 g ai/ha) was 30. For the same molecule, the “Plant response rating, Crabgrass, Large” value ([25]; 500 g ai/ha) was 100, the “Plant response rating, Morningglory” value ([26]; 125 g ai/ha) was 60 and the “Plant response rating, Morningglory” value ([26]; 500 g ai/ha) was 90. For the same molecule, the pest or weed control at 125 g/ha [14] was 90%, the pest or weed control at 500 g/ha ([14]; 500 g ai/ha) was 100% and the “Plant response rating, Velvetleaf” value ([27]; 125 g ai/ha) was 70. The “Plant response rating, Velvetleaf” value ([27]; 500 g ai/ha) was 90, the plant injury at 125 g/ha [16] was 20% and the plant injury at 500 g/ha ([16]; 500 g ai/ha) was 90%.

Source: patent publication US20170190671A1, “BIS(ARYL)CATECHOL DERIVATIVES AS HERBICIDES” (E I DU PONT DE NEMOURS AND COMPANY, priority 2014, published 2017)
